The experiment deals with BT-474 breast cancer cells. The experiment in a line: Toxicity of the Compound (IVa) polymer in BT-474 cultures. The settings on record: 24-hours. It counts as cell-based. As for the experimental part: The small molecule, N-allyl noroxymorphone hydrochloride, was added to Compound IVa (SiH3—[SiH2]n—SiH2—[C5H7O2]n with Ca10(PO4)6(OH)2) at a concentration of 0.4-mg N-allyl noroxymorphone/mg of Compound IVa. Then the MAGE-Polymerization Initiator Solution containing the vinyl monomer vinyl methacrylate was added in a ratio of 2:1. The material—with N-allyl noroxymorphone hydrochloride—was then polymerized and added to cultures of BT-474 breast cancer cells. Cultures were also treated with N-allyl noroxymorphone hydrochloride alone. Control cultures received no treatment.

Turning to `C=CCN1CC[C@]23c4c5ccc(O)c4O[C@H]2C(=O)CC[C@@]3(O)[C@H]1C5.Cl` [N-allyl noroxymorphone hydrochloride], the “Decrease in cell number relative to Control Cultures” value was 59.7%.
